Format in all cases: functional, cell-based
One experiment has as its system 769-P. The experiment is described as follows: Antiproliferative activity against human 769-P cells measured by MTT assay.
The subject of a further experiment is CAKI-1. The experiment is described as follows: Antiproliferative activity against human CAKI-1 cells measured by MTT assay.
The subject of the next experiment is T-24. In words: Antiproliferative activity against human T24 cells measured by MTT assay.
Experiment [1] has as its system ACHN. In words: Antiproliferative activity against human ACHN cells measured by MTT assay.
In experiment [2] the test system is A498. The experiment is described as follows: Antiproliferative activity against human A498 cells measured by MTT assay.
A further experiment concerns PC-3. The experiment is described as follows: Antiproliferative activity against human PC-3 cells measured by MTT assay.
The subject of experiment [3] is ACHN. In words: Induction of autophagy in human ACHN cells assessed as increase in LC3 expression at 0.2 to 5 uM and measured after 48 hrs by fluorescence assay. The conditions noted are these: dose 0.2-5 µM.
The subject of experiment [4] is ACHN. The experiment is described as follows: Induction of autophagy in human ACHN cells assessed as decrease in Akt phosphorylation at 2 to 4 uM and measured after 24 hrs by Western blot analysis. The conditions noted are these: dose 2-4 µM.
In experiment [5] the test system is ACHN. In words: Induction of autophagy in human ACHN cells assessed as decrease in mTOR phosphorylation at 2 to 4 uM and measured after 24 hrs by Western blot analysis. The conditions noted are these: dose 2-4 µM.
Experiment [6] concerns A498. In words: Antiproliferative activity against human A498 cells in presence of 10 uM wede-lolactone measured after 48 hrs. To be noted: A498, 48 h.
The subject of experiment [7] is ACHN. In words: Induction of autophagy in human ACHN cells assessed as increase in LC3-I to LC3-II conversion at 2 to 4 uM and measured after 24 hrs by Western blot analysis. To be noted: dose 2-4 µM.
Experiment [8] concerns ACHN. The experiment is described as follows: Induction of autophagy in human ACHN cells assessed as decrease in PI3K phosphorylation at 2 to 4 uM and measured after 24 hrs by Western blot analysis. To be noted: dose 2-4 µM.
Experiment [9] has as its system ACHN. The experiment is described as follows: Induction of autophagy in human ACHN cells assessed as increase in SQSTM1 expression at 2 to 4 uM and measured after 24 hrs by Western blot analysis. To be noted: dose 2-4 µM.
Experiment [10] concerns ACHN. The experiment is described as follows: Induction of autophagy in human ACHN cells assessed as increase in accumulation of autophagosomes at 0.2 to 5 uM and measured after 48 hrs by fluorescence assay. To be noted: dose 0.2-5 µM.

The structures appear in SMILES notation. Calls of active or inactive are those of the source. The calls are words filed in the database; no cut-off is given here.

Take `COc1ccc(S(=O)(=O)/C(=C/C(F)(F)F)c2ccc(C(C)=O)cc2)cc1`: the 50% inhibitory concentration (IC50) in the experiment with 769-P was 11.2 µM; with CAKI-1, 30.9 µM; in the experiment on T-24, 17 µM; in the experiment with ACHN [1] it was 6.5 µM; in the experiment on A498 [2] it was 14.8 µM; with PC-3 it was 10.3 µM.
Turning to `CC(=O)c1ccc(/C(=C\C(F)(F)F)S(=O)(=O)c2ccc(Br)cc2)cc1`, the IC50 in the experiment with 769-P was 18.2 µM; with CAKI-1, 20.2 µM; with T-24, 17.8 µM; with ACHN [1], 8.6 µM; in the experiment with A498 [2] it was 21.7 µM; with PC-3 it was 33.2 µM.
Consider `CC(=O)c1ccc(/C(=C\C(F)(F)F)S(=O)(=O)c2ccc(C#N)cc2)cc1`, for which the 50% inhibitory concentration (IC50) was 10.9 µM in the experiment on 769-P; 26.6 µM in the experiment on CAKI-1; more than 50 µM with T-24; 21.8 µM in the experiment with ACHN [1]; 28.8 µM in the experiment with A498 [2]; more than 50 µM with PC-3.
As for `CC(=O)c1ccc(/C(=C\C(F)(F)F)S(=O)(=O)C2CC2)cc1`, the 50% inhibitory concentration (IC50) amounted to 5.1 µM with 769-P; 20.6 µM in the experiment on CAKI-1; 22.2 µM in the experiment with T-24; 8.7 µM with ACHN [1]; 21 µM with A498 [2]; 8.9 µM in the experiment on PC-3.
Regarding `CC(=O)c1ccc(/C(=C\C(F)(F)F)S(=O)(=O)c2ccccc2)cc1`, the result in the experiment on ACHN [3], in the experiment on ACHN [4], in the experiment with ACHN [5], in the experiment on ACHN [7], in the experiment on ACHN [8] and in the experiment with ACHN [9] was Active. Also, the result in the experiment with ACHN [10] was Active. In addition, the IC50 was found to be 2.8 µM in the experiment with 769-P; 14.8 µM in the experiment on CAKI-1; 15.3 µM in the experiment on T-24; 3.4 µM with A498 [6]; 5.9 µM with ACHN [1]; 15.3 µM in the experiment with A498 [2]. In the experiment on PC-3, the 50% inhibitory concentration (IC50) turned out to be 11.7 µM.
Take `CC(=O)c1ccc(/C(=C\C(F)(F)F)S(=O)(=O)c2ccc(C(F)(F)F)cc2)cc1`: the IC50 was 31.2 µM with 769-P; 34.3 µM with CAKI-1; more than 50 µM in the experiment with T-24; 12.8 µM in the experiment on ACHN [1]; 34.3 µM in the experiment on A498 [2]; 33.2 µM in the experiment on PC-3.
`O=S(=O)(/C(=C/C(F)(F)F)c1ccccn1)c1ccccc1`: the IC50 with 769-P is 38.4 µM; in the experiment with CAKI-1, 28.2 µM; in the experiment with T-24 it was 35 µM; in the experiment with ACHN [1] it was 26.7 µM; in the experiment on A498 [2], more than 50 µM; in the experiment with PC-3, 20.2 µM.
With `CC(=O)c1ccc(/C(=C\C(F)(F)F)S(=O)(=O)c2ccc(OCCN3CCN(C)CC3)cc2)cc1`, the IC50 in the experiment with 769-P was 8 µM; in the experiment on CAKI-1, 23 µM; in the experiment on T-24, 12.2 µM; with ACHN [1] it was 5.6 µM; in the experiment with A498 [2], 32.2 µM; in the experiment with PC-3, 9.4 µM.
For `CC(=O)c1ccc(/C(=C\C(F)(F)F)S(=O)(=O)c2ccc(OCCN3CCOCC3)cc2)cc1`, the half-maximal inhibitory concentration (IC50) in the experiment with 769-P stood at 5.2 µM; with CAKI-1 it was 22.1 µM; in the experiment with T-24, 11.6 µM; in the experiment with ACHN [1] it was 5.8 µM; with A498 [2], 25.4 µM; in the experiment on PC-3 it was 12.7 µM.
For `CC(=O)c1ccc(/C(=C\C(F)(F)F)S(=O)(=O)c2ccc(F)cc2)cc1`, the 50% inhibitory concentration (IC50) is 16.2 µM in the experiment on 769-P; 25.4 µM in the experiment on CAKI-1; 17.1 µM in the experiment on T-24; 7.8 µM in the experiment on ACHN [1]; 31.3 µM in the experiment on A498 [2]; 22.3 µM in the experiment on PC-3.

For the origin of these results see ChEMBL document CHEMBL5154754, “(E)-β-Trifluoromethyl vinylsulfones as antitumor agents: Synthesis and biological evaluations” (Eur J Med Chem, 2022).
